This experiment relates to Nrf2 (NQO1 activity in BEAS-2B cells). Description: BEAS-2B NQO1 MTT Assay. Format: cell-based. Particulars: Homo sapiens, 48 hours, NQO1 specific activity induction, read-out: EC50. From the text:
NAD(P)H:quinone oxidoreductase 1 (NQO1), also called DT diaphorase, is a homodimeric FAD-containing enzyme that catalyzes obligatory NAD(P)H-dependent two-electron reductions of quinones and protects cells against the toxic and neoplastic effects of free radicals and reactive oxygen species arising from one-electron reductions. The transcription of NQO1 is finely regulated by Nrf2, and thus NQO1 activity is a good marker for Nrf2 activation. On day one, frozen BEAS-2B cells (ATCC) were thawed in a water bath, counted, and re-suspended at a concentration of 250,000 cells/mL. Fifty microliters of cells were plated in 384 well black clear-bottomed plates. Plates were incubated at 37° C., 5% CO2 overnight. On day two, plates were centrifuged and 50 nL of compound or controls were added to the cells. Plates were then incubated at 37° C., 5% CO2 for 48 hours. On day four, medium was aspirated from the plate and crude cell lysates were made by adding 13 μL of 1× Cell Signalling Technologies lysis buffer with 1 Complete, Mini, EDTA-free Protease Inhibitor Tablet (Roche) for each 10 mL of lysis buffer. After lysis plates were incubated for 20 minutes at room temperature. Two microliters of lysate were removed for use in Cell Titer Glo assay (Promega) and MTT cocktail was prepared (Prochaska et. al. 1998) for measurement of NQO1 activity. Fifty microliters of MTT cocktail was added to each well, plate was centrifuged, and analyzed on an Envision plate reader (Perkin Elmer) using Absorbance 570 nm label for 30 minutes. Product formation was measured kinetically and the pEC50 of NQO1 specific activity induction was calculated by plotting the change in absorbance (Delta OD/min) versus the log of compound concentration followed by 3-parameter fitting.
EC50s<1 nM (+++++), EC50s 1 nM-10 nM (++++), EC50s 10 nM-100 nM (+++), EC50s 100 nM-1 μM (++), EC50s 1 μM-10 μM (+).
As usually defined, the EC50 is the concentration that produces a half-maximal response. Turning to `Cc1ccc([C@@H](CC(=O)O)c2ccc3c(nnn3C)c2C)cc1CN1Cc2nc(O)ccc2O[C@@H](C(F)(F)F)C1` [Example 20, (R)-3-(1,4-dimethyl-1H-benzo[d][1,2,3]triazol-5-yl)-3-(3-(((R)-7-hydroxy-2-(trifluoromethyl)-2,3-dihydropyrido[2,3-f][1,4]oxazepin-4(5H)-yl)methyl)-4-methylphenyl)propanoic acid], the EC50 is 1000 to 10000 nM.

As to `Cc1ccc([C@H](CC(=O)O)c2ccc3c(nnn3C)c2C)cc1CN1Cc2nc(O)ccc2OC(C)(C)C1` [Example 11, (S)-3-(1,4-dimethyl-1H-benzo[d][1,2,3]triazol-5-yl)-3-(3-((7-hydroxy-2,2-dimethyl-2,3-dihydropyrido[2,3-f][1,4]oxazepin-4(5H)-yl)methyl)-4-methylphenyl)propanoic acid], the 50% effective concentration (EC50) is 100 to 1000 nM.

As for `CC[C@@]1(C)CN(Cc2cc([C@@H](CC(=O)O)c3ccc4c(nnn4C)c3C)ccc2C)Cc2nc(O)ccc2O1` [Example 27, (R)-3-(1,4-dimethyl-1H-benzo[d][1,2,3]triazol-5-yl)-3-(3-(((S)-2-ethyl-7-hydroxy-2-methyl-2,3-dihydropyrido[2,3-f][1,4]oxazepin-4(5H)-yl)methyl)-4-methylphenyl)propanonic acid], the EC50 lay in the range of 10 to 100 nM.

As to `Cc1ccc([C@@H](c2ccc3c(nnn3C)c2C)C(C)(C)C(=O)O)cc1CN1Cc2nc(O)ccc2O[C@H](C(C)C)C1` [Example 15, (S)-3-(1,4-dimethyl-1H-benzo[d][1,2,3]triazol-5-yl)-3-(3-(((R)-7-hydroxy-2-isopropyl-2,3-dihydropyrido[2,3-f][1,4]oxazepin-4(5H)-yl)methyl)-4-methylphenyl)-2,2-dimethylpropanoic acid], the EC50 is < 1 nM.

On to `Cc1ccc([C@@H](c2ccc3c(nnn3C)c2C)C(C)(C)C(=O)O)cc1CN1Cc2nc(O)ccc2O[C@H](C)C1` [Example 14, (S)-3-(1,4-dimethyl-1H-benzo[d][1,2,3]triazol-5-yl)-3-(3-(((R)-7-hydroxy-2-methyl-2,3-dihydropyrido[2,3-f][1,4]oxazepin-4(5H)-yl)methyl)-4-methylphenyl)-2,2-dimethylpropanoic acid], for which the EC50 lay in the range of 1 to 10 nM.

Turning to `Cc1ccc([C@@H](c2ccc3c(nnn3C)c2C)C(C)(C)C(=O)O)cc1CN1Cc2nc(O)ccc2O[C@@H](C(C)C)C1` [Example 16, (S)-3-(1,4-dimethyl-1H-benzo[d][1,2,3]triazol-5-yl)-3-(3-(((S)-7-hydroxy-2-isopropyl-2,3-dihydropyrido[2,3-f][1,4]oxazepin-4(5H)-yl)methyl)-4-methylphenyl)-2,2-dimethylpropanoic acid], the EC50 fell in the range of 1 to 10 nM.

Take `Cc1ccc([C@@H](CC(=O)O)c2ccc3c(nnn3C)c2C)cc1CN1Cc2nc(O)ccc2O[C@H](C(F)(F)F)C1` [Example 6, (R)-3-(1,4-dimethyl-1H-benzo[d][1,2,3]triazol-5-yl)-3-(3-(((S)-7-hydroxy-2-(trifluoromethyl)-2,3-dihydropyrido[2,3-f][1,4]oxazepin-4(5H)-yl)methyl)-4-methylphenyl)propanoic acidacid]: the EC50 is 10 to 100 nM.

For the molecule `CC[C@H]1CN(Cc2cc([C@@H](CC(=O)O)c3ccc4c(nnn4C)c3C)ccc2C)Cc2nc(O)ccc2O1` [Example 7, (R)-3-(1,4-dimethyl-1H-benzo[d][1,2,3]triazol-5-yl)-3-(3-(((S)-2-ethyl-7-hydroxy-2,3-dihydropyrido[2,3-f][1,4]oxazepin-4(5H)-yl)methyl)-4-methylphenyl)propanoic acid], the EC50 was in the range of 100 to 1000 nM.

For the molecule `Cc1ccc([C@@H](c2ccc3c(nnn3C)c2C)C(C)(C)C(=O)O)cc1CN1Cc2nc(O)ccc2O[C@@H](C)C1` [Example 23, (S)-3-(1,4-dimethyl-1H-benzo[d][1,2,3]triazol-5-yl)-3-(3-(((S)-7-hydroxy-2-methyl-2,3-dihydropyrido[2,3-f][1,4]oxazepin-4(5H)-yl)methyl)-4-methylphenyl)-2,2-dimethylpropanoic acid], the EC50 lay within 10 to 100 nM.

As for `CC[C@@H]1CN(Cc2cc([C@@H](CC(=O)O)c3ccc4c(nnn4C)c3C)ccc2C)Cc2nc(O)c(F)cc2O1` [Example 22, (R)-3-(1,4-dimethyl-1H-benzo[d][1,2,3]triazol-5-yl)-3-(3-(((R)-2-ethyl-8-fluoro-7-hydroxy-2,3-dihydropyrido[2,3-f][1,4]oxazepin-4(5H)-yl)methyl)-4-methylphenyl)propanoic acid], the EC50 was 1 to 10 nM.

Consider `Cc1ccc([C@@H](CC(=O)O)c2ccc3c(nnn3C)c2C)cc1CN1Cc2nc(O)ccc2O[C@H](C(C)(C)C)C1` [Example 30, (R)-3-(3-(((R)-2-(tert-butyl)-7-hydroxy-2,3-dihydropyrido[2,3-f][1,4]oxazepin-4(5H)-yl)methyl)-4-methylphenyl)-3-(1,4-dimethyl-1H-benzo[d][1,2,3]triazol-5-yl)propanoic acid], for which the EC50 fell in the range of 10 to 100 nM.

For `Cc1ccc([C@H](CC(=O)O)c2ccc3c(nnn3C)c2C)cc1CN1Cc2nc(O)ccc2O[C@H](C(F)(F)F)C1` [Example 25, (S)-3-(1,4-dimethyl-1H-benzo[d][1,2,3]triazol-5-yl)-3-(3-(((S)-7-hydroxy-2-(trifluoromethyl)-2,3-dihydropyrido[2,3-f][1,4]oxazepin-4(5H)-yl)methyl)-4-methylphenyl)propanoic acid], the EC50 was in the range of 10 to 100 nM.

Turning to `CC[C@@H]1CN(Cc2cc([C@H](CC(=O)O)c3ccc4c(nnn4C)c3C)ccc2C)Cc2nc(O)ccc2O1` [Example 10, (S)-3-(1,4-dimethyl-1H-benzo[d][1,2,3]triazol-5-yl)-3-(3-(((R)-2-ethyl-7-hydroxy-2,3-dihydropyrido[2,3-f][1,4]oxazepin-4(5H)-yl)methyl)-4-methylphenyl)propanoic acid], the EC50 was in the range of 10 to 100 nM.

Take `Cc1ccc([C@H](CC(=O)O)c2ccc3c(nnn3C)c2C)cc1CN1Cc2nc(O)ccc2O[C@@H](C(F)(F)F)C1` [Example 28, (S)-3-(1,4-dimethyl-1H-benzo[d][1,2,3]triazol-5-yl)-3-(3-(((R)-7-hydroxy-2-(trifluoromethyl)-2,3-dihydropyrido[2,3-f][1,4]oxazepin-4(5H)-yl)methyl)-4-methylphenyl)propanoic acid]: the EC50 was 1000 to 10000 nM.

As to `Cc1ccc([C@@H](c2ccc3c(nnn3C)c2C)C(C)(C)C(=O)O)cc1CN1CCOc2ccc(O)nc2C1` [Example 24, (S)-3-(1,4-dimethyl-1H-benzo[d][1,2,3]triazol-5-yl)-3-(3-((7-hydroxy-2,3-dihydropyrido[2,3-f][1,4]oxazepin-4(5H)-yl)methyl)-4-methylphenyl)-2,2-dimethylpropanoic acid], the EC50 was in the range of 10 to 100 nM.

For `Cc1ccc([C@@H](CC(=O)O)c2ccc3c(nnn3C)c2C)cc1CN1Cc2nc(O)ccc2O[C@H](C)C1` [Example 4, (R)-3-(1,4-dimethyl-1H-benzo[d][1,2,3]triazol-5-yl)-3-(3-(((R)-7-hydroxy-2-methyl-2,3-dihydropyrido[2,3-f][1,4]oxazepin-4(5H)-yl)methyl)-4-methylphenyl)propanoic acid], the EC50 lay in the range of 10 to 100 nM.

Consider `Cc1ccc([C@H](CC(=O)O)c2ccc3c(nnn3C)c2C)cc1CN1Cc2nc(O)ccc2O[C@@H](C(C)C)C1` [Example 9, (S)-3-(1,4-dimethyl-1H-benzo[d][1,2,3]triazol-5-yl)-3-(3-(((S)-7-hydroxy-2-isopropyl-2,3-dihydropyrido[2,3-f][1,4]oxazepin-4(5H)-yl)methyl)-4-methylphenyl)propanoic acid], for which the EC50 was in the range of 100 to 1000 nM.

As for `CC[C@@H]1CN(Cc2cc([C@@H](c3ccc4c(nnn4C)c3C)C(C)(C)C(=O)O)ccc2C)Cc2nc(O)ccc2O1` [Example 13, (S)-3-(1,4-dimethyl-1H-benzo[d][1,2,3]triazol-5-yl)-3-(3-(((R)-2-ethyl-7-hydroxy-2,3-dihydropyrido[2,3-f][1,4]oxazepin-4(5H)-yl)methyl)-4-methylphenyl)-2,2-dimethyl propanoic acid], the EC50 was < 1 nM.

With `CC[C@H]1CN(Cc2cc([C@@H](c3ccc4c(nnn4C)c3C)C(C)(C)C(=O)O)ccc2C)Cc2nc(O)ccc2O1` [Example 18, (S)-3-(1,4-dimethyl-1H-benzo[d][1,2,3]triazol-5-yl)-3-(3-(((S)-2-ethyl-7-hydroxy-2,3-dihydropyrido[2,3-f][1,4]oxazepin-4(5H)-yl)methyl)-4-methylphenyl)-2,2-dimethylpropanoic acid], the EC50 is 1 to 10 nM.

Regarding `Cc1ccc([C@H](CC(=O)O)c2ccc3c(nnn3C)c2C)cc1CN1Cc2nc(O)ccc2O[C@H](C(C)C)C1` [Example 8, (S)-3-(1,4-dimethyl-1H-benzo[d][1,2,3]triazol-5-yl)-3-(3-(((R)-7-hydroxy-2-isopropyl-2,3-dihydropyrido[2,3-f][1,4]oxazepin-4(5H)-yl)methyl)-4-methylphenyl)propanoic acid], the EC50 was 10 to 100 nM.

(Values after US11945826B2, “Hydroxypyridoxazepines as NRF2 activators” (GLAXOSMITHKLINE INTELLECTUAL PROPERTY DEVELOPMENT LIMITED, priority 2019, dated 2024).)
